# Key:
# [1] = target: T1, recombinant HDAC2 (Homo sapiens, UniProt Q92769); experiment: Fluorogenic assay kit, recombinant HDAC2 enzyme activity; type: biochemical; details: mean±S.E.M., three replicate experiments; read-out: IC50 (nM) of HDAC isoforms enzyme, HDAC2
# T1 construct: purchased BPS Bioscience Corp. (San Diego, CA, USA)
# Text: (§1) Using kits that contained different recombinant HDAC isoforms, we evaluated the ability of MPT0G009 to inhibit HDAC-mediated deacetylation of lysine residues on the substrates that were provided. […] Fluorogenic HDAC assay kits were used to assess the ability of HDAC inhibitors to inhibit deacetylation of lysine residues on the substrate by recombinant HDAC1, 2, 3, 4, 6 or 8 according to the manufacturer's instructions.
# [2] = target: T2, recombinant HDAC6 (Homo sapiens, UniProt Q9UBN7); experiment: Fluorogenic assay kit, recombinant HDAC6 enzyme activity; type: biochemical; details: mean±S.E.M., three replicate experiments; read-out: IC50 (nM) of HDAC isoforms enzyme, HDAC6
# T2 construct: purchased BPS Bioscience Corp. (San Diego, CA, USA)
# T2 sequence (Q9UBN7 whole entry, canonical isoform): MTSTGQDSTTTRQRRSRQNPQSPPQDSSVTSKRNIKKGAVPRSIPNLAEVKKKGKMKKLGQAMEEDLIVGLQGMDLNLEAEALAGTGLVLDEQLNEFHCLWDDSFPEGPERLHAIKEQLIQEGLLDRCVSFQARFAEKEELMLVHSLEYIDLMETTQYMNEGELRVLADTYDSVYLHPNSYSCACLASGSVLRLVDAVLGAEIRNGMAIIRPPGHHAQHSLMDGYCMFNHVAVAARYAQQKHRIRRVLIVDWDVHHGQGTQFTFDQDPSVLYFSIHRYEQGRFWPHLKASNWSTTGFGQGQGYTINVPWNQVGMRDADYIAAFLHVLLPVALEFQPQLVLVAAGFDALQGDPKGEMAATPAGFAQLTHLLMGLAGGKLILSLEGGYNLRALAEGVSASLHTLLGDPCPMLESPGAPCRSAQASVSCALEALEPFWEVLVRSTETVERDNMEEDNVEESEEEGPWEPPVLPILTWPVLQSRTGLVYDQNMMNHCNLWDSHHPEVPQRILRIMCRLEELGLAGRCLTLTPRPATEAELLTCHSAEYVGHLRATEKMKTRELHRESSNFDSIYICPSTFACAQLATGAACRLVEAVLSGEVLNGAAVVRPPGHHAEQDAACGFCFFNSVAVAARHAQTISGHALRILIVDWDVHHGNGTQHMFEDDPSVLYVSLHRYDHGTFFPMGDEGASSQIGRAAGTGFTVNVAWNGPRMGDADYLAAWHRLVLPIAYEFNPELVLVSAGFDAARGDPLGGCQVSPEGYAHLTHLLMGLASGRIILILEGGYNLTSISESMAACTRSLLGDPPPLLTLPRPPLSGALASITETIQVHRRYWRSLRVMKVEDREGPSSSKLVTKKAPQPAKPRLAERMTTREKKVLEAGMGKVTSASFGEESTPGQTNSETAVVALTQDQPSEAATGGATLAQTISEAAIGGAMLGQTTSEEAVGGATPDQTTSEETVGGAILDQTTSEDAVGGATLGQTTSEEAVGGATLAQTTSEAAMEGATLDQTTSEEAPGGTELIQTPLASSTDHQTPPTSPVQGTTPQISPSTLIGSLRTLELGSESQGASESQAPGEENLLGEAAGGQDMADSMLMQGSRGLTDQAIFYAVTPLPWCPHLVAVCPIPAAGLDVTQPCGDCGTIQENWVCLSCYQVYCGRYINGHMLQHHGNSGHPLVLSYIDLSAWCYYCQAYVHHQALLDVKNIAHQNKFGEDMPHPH
# Text: as §1
# [3] = system: HDACs in rabbit synovial fibroblast cell line HIG-82; experiment: HDAC activity assay of cell lysates (HIG-82); type: cell-based; details: HIG-82 cell line
# Text: We have synthesized 1-arylsulfonyl-5-(N-hydroxyacrylamide) indolines derivative HDAC inhibitors. […] In this study, we evaluated the anti-arthritic effects of MPT0G009 in vitro and in an in vivo model and determined the pharmacokinetics and its maximum tolerated dose (MTD).
# Colorimetric HDAC activity kits were used to assay HDAC activity in cell lysates according to the manufacturer's instructions.
# [4] = system: RA-FLS; experiment: Cell proliferation assay (SRB), RA-FLS; type: cell-based, human; details: 24 or 48 h
# [5] = system: histone H3 acetylation and HDAC3 in RA-FLS; experiment: Western blot of acetyl histone H3 and HDAC isoforms, RA-FLS; type: cell-based, human
# Procedure: Then, cells were harvested and cell lysates were prepared for western blot analysis of the indicated proteins. (c) RA-FLSs were incubated for 1 h with or without the proteasome inhibitor, MG132 (1 μM). […] Results shown are representative of three independent experiments.
# [6] = system: RAW264.7 macrophages; experiment: Osteoclast differentiation assay (TRAP stain), M-CSF/RANKL-induced; type: cell-based, mouse; details: RAW264.7, M-CSF/RANKL 50 ng/ml 5 days; 5 nM MPT0G009 or 50 nM SAHA
# Procedure: Osteoclast formation was measured by quantifying cells stained for the osteoclast marker TRAP using an acid phosphatase kit (387-A; Sigma-Aldrich). Briefly, the specimens were fixed for 30 s in fixative solution (25.5% citrate solution, 66.3% acetone, 8.2% of 37% formaldehyde), then incubated for 1 h at 37 °C with a mixture of the provided naphthol AS-BI phosphate and tartrate solutions, followed by counterstaining with hematoxylin solution. Osteoclasts were counted as TRAP-positive multinuclear (>3 nuclei) cells using light microscopy. The morphological features of osteoclasts were also photographed.
# [7] = Pharmacokinetic evaluation in Sprague–Dawley rats; type: in vivo; details: male, plasma, rat
# Procedure: The pharmokinetic parameters of MPT0G009 in rats after single-dose intravenous (i.v.) and oral administration are summarized in Table 2.
# A 1–5 mg/ml dosing solution was preparing by dissolving appropriate amount compound in a mixture of PEG400/DMSO (80 : 20, v/v) for i.v. administration and 1% carboxylmethyl cellulose, 0.5% Tween 80 for oral dosing, respectively. Eight to 10-week-old male Sprague–Dawley rats were obtained from BioLASCO Corp. (Ilan, Taiwan), and tested compound was separately administered to group of rats (n=3 per group) i.v. (2 mg/kg dose) by a bolus injection to jugular vein or periorally (20 mg/kg dose). Blood sample (0.15 ml) from 0 h (before dosing) to 24 h was collected from each animal via the jugular vein cannula and stored in ice. Plasma was separated from the blood and centrifuged at 14 000 g for 30 min at 4 °C. All samples were analyzed for the test compound by LC-MS/MS (ABI4000; Applied Biosystems, Foster City, CA, USA). Data were acquired via multiple reactions monitoring. Plasma concentration data were analyzed with standard noncompartmental method.
# [8] = system: p21 in RA-FLS; experiment: p21 expression in RA-FLS by flow cytometry
# Procedure: After three washes with FACS washing buffer, the fluorescence of the cells was analyzed on a FACScan flow cytometer (BD Biosciences). […] They were then incubated for 30 min at room temperature with 0.2 ml of DNA extraction buffer (0.2 M Na2HPO4 and 0.1 M citric acid buffer, pH 7.8), resuspended in 1 ml of propidium iodide staining buffer (0.1% Triton X-100, 100 μg/ml of RNase A and 80 μg/ml of propidium iodide in PBS), incubated at 37 °C for 30 min in the dark, sorted by FACScan, and analyzed using CellQuest software (BD Biosciences).
# T1 sequence (Q92769 whole entry, canonical isoform): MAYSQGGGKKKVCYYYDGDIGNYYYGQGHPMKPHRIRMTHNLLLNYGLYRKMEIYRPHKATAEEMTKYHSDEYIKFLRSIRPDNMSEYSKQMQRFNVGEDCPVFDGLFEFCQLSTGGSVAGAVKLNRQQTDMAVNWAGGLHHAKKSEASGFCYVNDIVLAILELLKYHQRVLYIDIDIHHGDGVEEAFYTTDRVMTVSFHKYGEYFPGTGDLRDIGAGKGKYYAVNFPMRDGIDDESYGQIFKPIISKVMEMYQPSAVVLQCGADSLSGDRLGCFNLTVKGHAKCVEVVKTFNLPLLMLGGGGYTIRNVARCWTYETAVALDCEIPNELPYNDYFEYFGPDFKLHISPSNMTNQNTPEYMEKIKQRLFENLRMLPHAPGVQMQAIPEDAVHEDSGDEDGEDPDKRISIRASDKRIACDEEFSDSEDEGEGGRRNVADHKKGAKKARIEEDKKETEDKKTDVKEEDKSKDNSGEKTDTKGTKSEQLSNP
compound,measurement,setting,value
"COc1ccc(S(=O)(=O)N2CCc3cc(C=CC(=O)NO)ccc32)cc1 [MPT0G009, 3-[1-(4-methoxybenzenesulfonyl)-2,3-dihydro-1H-indol-5-yl]-N-hydroxyacrylamide]",IC50,[1],5.16 ± 0.76 nM
same,IC50,[2],8.43 ± 0.72 nM
same,potency relative to SAHA on HDACs inhibition,[3],> 10 times
same,anti-proliferative effect,[4],concentration-dependent anti-proliferative effects
same,acetylation of histone H3 (Acetyl-H3),"[5]; 1 μM MPT0G009 or 30 μM SAHA, 6, 12 or 24 h, starting at 12 h",significant hyperacetylation
same,levels of HDAC3,"[5]; 12 or 24 h, 1 μM MPT0G009 or 30 μM SAHA",decreased levels of HDAC3
same,formation of M-CSF/RANKL-induced TRAP-positive cells,[6],significantly inhibited
same,AUC(0-inf),"[7]; iv, i.v. 2 mg/kg",665 ng·h/mL
same,Vd,"[7]; iv, i.v. 2 mg/kg",25.2 L/kg
same,clearance,"[7]; iv, i.v. 2 mg/kg",85.3 mL/min/kg
same,half-life,"[7]; iv, i.v. 2 mg/kg",6.74 h
same,AUC(0-inf),"[7]; po, p.o. 20 mg/kg",1260 ng·h/mL
same,Cmax,"[7]; po, p.o. 20 mg/kg",221 ng/mL
same,Tmax,"[7]; po, p.o. 20 mg/kg",3.43 h
same,half-life,"[7]; po, p.o. 20 mg/kg",9.53 h
same,bioavailability,"[7]; po, p.o. 20 mg/kg, read-out: F (oral bioavailability)",13%
same,expression of p21,"[8]; RA-FLS 24 h, 1 μM MPT0G009 or 3 μM SAHA, flow cytometry or western blot",significantly increased
same,p21 (flow cytometry),"[8]; RA-FLS, 1 μM, 24 h, Figure 1h",94.71%

# — publication PMC5424110, “Preclinical anti-arthritic study and pharmacokinetic properties of a potent histone deacetylase inhibitor MPT0G009” (Cell Death & Disease, 2014)
